Measured values: patent publication US20020151459A1, “Methods for identifying compounds useful for inhibiting farnesyl diphosphate synthase” (Merck & Co., Inc., priority 2000, published 2002)
“Also recorded” adds a separate entry of the source. Blank lines part the entries; values can stand above or below the compound they belong to.

What was measured:
[1] = biological target: T1, rat liver squalene synthase (Rattus norvegicus, UniProt Q02769); conditions: cited from earlier work
T1 construct: host or cells: rat liver
T1 sequence (Q02769 1-416): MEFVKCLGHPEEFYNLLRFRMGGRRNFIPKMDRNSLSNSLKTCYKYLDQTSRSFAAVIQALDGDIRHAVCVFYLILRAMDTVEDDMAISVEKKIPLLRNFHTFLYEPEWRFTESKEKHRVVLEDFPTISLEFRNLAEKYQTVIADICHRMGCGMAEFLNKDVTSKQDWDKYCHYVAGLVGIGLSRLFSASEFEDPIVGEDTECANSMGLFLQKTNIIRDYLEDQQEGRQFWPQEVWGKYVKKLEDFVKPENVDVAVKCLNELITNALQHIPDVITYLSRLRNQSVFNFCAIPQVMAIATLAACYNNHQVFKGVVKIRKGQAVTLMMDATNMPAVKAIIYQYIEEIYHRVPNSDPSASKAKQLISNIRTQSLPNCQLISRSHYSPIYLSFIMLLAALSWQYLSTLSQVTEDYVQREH

[2] = biological target: geranylgeranyl protein transferase II (GGTase II) (Homo sapiens, UniProt P53611+Q92696)
geranylgeranyl protein transferase II (GGTase II), sequence (Q92696 whole entry): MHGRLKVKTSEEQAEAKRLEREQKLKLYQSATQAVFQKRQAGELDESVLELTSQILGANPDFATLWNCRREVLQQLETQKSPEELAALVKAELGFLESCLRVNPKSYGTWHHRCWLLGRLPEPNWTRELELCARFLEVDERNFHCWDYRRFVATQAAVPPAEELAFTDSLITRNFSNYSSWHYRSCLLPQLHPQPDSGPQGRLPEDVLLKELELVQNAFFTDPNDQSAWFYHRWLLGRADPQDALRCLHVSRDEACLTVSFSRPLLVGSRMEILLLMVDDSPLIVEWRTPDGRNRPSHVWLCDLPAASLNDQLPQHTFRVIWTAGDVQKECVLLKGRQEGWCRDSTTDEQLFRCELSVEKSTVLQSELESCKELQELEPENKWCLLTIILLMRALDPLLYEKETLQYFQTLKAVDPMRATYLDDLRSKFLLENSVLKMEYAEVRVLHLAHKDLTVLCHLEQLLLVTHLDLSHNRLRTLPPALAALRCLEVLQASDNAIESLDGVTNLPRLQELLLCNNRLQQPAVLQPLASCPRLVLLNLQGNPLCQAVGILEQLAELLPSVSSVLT
geranylgeranyl protein transferase II (GGTase II), sequence (P53611 whole entry): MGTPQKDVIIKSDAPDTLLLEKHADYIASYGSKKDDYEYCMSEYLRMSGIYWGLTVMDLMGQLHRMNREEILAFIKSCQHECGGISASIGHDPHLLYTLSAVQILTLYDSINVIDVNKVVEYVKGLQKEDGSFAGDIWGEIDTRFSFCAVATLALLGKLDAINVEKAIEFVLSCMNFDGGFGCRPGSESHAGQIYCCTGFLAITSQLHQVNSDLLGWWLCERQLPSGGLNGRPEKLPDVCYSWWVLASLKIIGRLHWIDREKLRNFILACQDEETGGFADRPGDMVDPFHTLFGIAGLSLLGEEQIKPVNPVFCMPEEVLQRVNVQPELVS

[3] = system: protein prenylation in osteoclasts; conditions: at 60 μM
[4] = system: mevalonate-derived non-saponifiable lipids in osteoclasts; assay: cells; conditions: Mus musculus, Osteoclast, read-out: IC50, incorporation of label from MVL into non-saponifiable lipids, osteoclasts, 2 hours pretreatment, 3 hours of labeling
[5] = system: sterol synthesis; conditions: read-out: IC50, block of sterol synthesis; incorporation of 14C-MVA into sterol, rat liver cell-free system; cited from earlier work
[6] = biological target: geranylgeranyl protein transferase I (GGTase I) (Homo sapiens, UniProt P49354+P53609)
[7] = biological target: Farnesyl protein transferase (FTase) (Homo sapiens, UniProt P49354+P49356)
[8] = system: osteoclasts in culture; conditions: cited from earlier work
[9] = system: mevalonate-derived non-saponifiable lipids in osteoclasts; conditions: alendronate 0-60 μM
[10] = system: protein prenylation in osteoclasts; assay: cells; conditions: Mus musculus, Osteoclast, read-out: IC50, labeling of prenylated proteins, osteoclasts, 15 μM lovastatin, 2 hours pretreatment, 3 hours of labeling
[11] = biological target: T2, human recombinant farnesyl diphosphate synthase (Homo sapiens, UniProt P14324)
T2 sequence (P14324 67-419 limits assumed): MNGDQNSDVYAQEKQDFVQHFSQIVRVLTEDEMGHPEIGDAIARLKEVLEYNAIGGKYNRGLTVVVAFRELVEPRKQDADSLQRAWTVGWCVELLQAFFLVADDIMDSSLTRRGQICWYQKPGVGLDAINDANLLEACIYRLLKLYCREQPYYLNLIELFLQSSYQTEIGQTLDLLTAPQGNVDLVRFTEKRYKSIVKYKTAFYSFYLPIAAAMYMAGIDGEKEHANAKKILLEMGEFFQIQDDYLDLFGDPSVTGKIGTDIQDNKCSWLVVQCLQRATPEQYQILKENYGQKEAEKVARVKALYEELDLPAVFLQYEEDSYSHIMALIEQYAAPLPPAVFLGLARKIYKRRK

[12] = biological target: T2, human recombinant farnesyl diphosphate synthase; assay: biochemical

SMILES: O=P(O)(O)C(O)(CCN1CCCC1)P(=O)(O)O [EB 1053, 1-hydroxy-3-(1-pyrrolidinyl)-propylidene-1,1-bisphosphonic acid]
- inhibition of squalene synthase (in words) [1]: potent, nanomolar inhibitors

SMILES: O=P(O)(O)C(NC1CCCCCC1)P(=O)(O)O [YM 175, Cycloheptylaminomethylene-1,1-bisphosphonic acid]
- inhibition of squalene synthase (in words) [1]: potent, nanomolar inhibitors

- inhibition of GGTase II (in words) [2]: not inhibited
- IC50 [4]: ~15 µM
- inhibition of GGTase I (in words) [6]: not inhibited
- inhibition of FTase (in words) [7]: not inhibited
- IC50 [10]: ~15 µM
- inhibition of FPP synthase (in words) [11]: effectively inhibit
SMILES: NCCCC(O)(P(=O)(O)O)P(=O)(O)O [alendronate, 4-amino-1-hydroxybutylidene-1,1-bisphosphonic acid monosodium trihydrate]
- inhibition of squalene synthase (in words) [1]: comparatively little effect
- labeling of prenylated proteins (in words) [3]: essentially disappears
- IC50 [5]: 0.168 µM
- osteoclast formation and bone resorption (in words) [8]: inhibited
- lowering of incorporation of label from MVL into non-saponifiable lipids [9]: up to 80%

SMILES: O=P(O)(O)C(Cl)(Cl)P(=O)(O)O [clodronate, 1,1-dichloromethylene-1,1-diphosphonic acid]
- inhibition of FPP synthase (in words) [11]: no inhibition observed; also recorded: little or no effect

- IC50 [12]: 80 µM
- inhibition of FPP synthase (in words) [11]: little or no effect
SMILES: CC(O)(P(=O)(O)O)P(=O)(O)O [etidronate, 1-hydroxyethane-1,1-diphosphonic acid]

SMILES: CC[C@H](C)C(=O)O[C@H]1C[C@@H](C)C=C2C=C[C@H](C)[C@H](CC[C@@H]3C[C@@H](O)CC(=O)O3)[C@H]21 [lovastatin]
- osteoclast formation and bone resorption (in words) [8]: inhibited

SMILES: NCCC(O)(P(=O)(O)O)P(=O)(O)O [pamidronate, 3-amino-1-hydroxypropylidene-1,1-bisphosphonic acid]
- inhibition of squalene synthase (in words) [1]: comparatively little effect
- IC50 [5]: 0.42 µM
- inhibition of FPP synthase (in words) [11]: effectively inhibit
